# Tests used:
# Format in all cases: in vivo
# [1] = tested on: barnyardgrass (Echinochloa crus-galli); experiment: Test A preemergence, barnyardgrass; details: Preemergence; for Barnyardgrass plant response rating: 125 g ai/ha, visual injury on 0 to 100 scale (0 no effect, 100 complete control), approximately 10 days; for Plant response rating, Barnyardgrass: 500 g ai/ha, 0 to 100 scale (0 no effect, 100 complete control)
# Summary of the method: (§1)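 Formulated with a surfactant in a non-phytotoxic solvent, compounds are applied to loam–sand pots, either to bare soil immediately after seeding (preemergence) or to seedlings of 2 to 10 cm bearing one to two leaves (postemergence).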
# [2] = tested on: kochia (Bassia scoparia); experiment: Test A preemergence, kochia; details: Preemergence; for Kochia plant response rating: 125 g ai/ha, visual injury on 0 to 100 scale (0 no effect, 100 complete control), approximately 10 days; for Plant response rating, Kochia: 500 g ai/ha, 0 to 100 scale (0 no effect, 100 complete control)
# Summary of the method: as §1
# [3] = tested on: ragweed (common ragweed, Ambrosia artemisiifolia); experiment: Test A preemergence, ragweed; details: Preemergence; for Ragweed plant response rating: 125 g ai/ha, visual injury on 0 to 100 scale (0 no effect, 100 complete control), approximately 10 days; for Plant response rating, Ragweed: 500 g ai/ha, 0 to 100 scale (0 no effect, 100 complete control)
# Summary of the method: as §1
# [4] = tested on: Ryegrass, Italian (Italian ryegrass, Lolium multiflorum); experiment: Test A preemergence, Ryegrass, Italian; details: Preemergence; for Ryegrass, Italian plant response rating: 125 g ai/ha, visual injury on 0 to 100 scale (0 no effect, 100 complete control), approximately 10 days; for Plant response rating, Ryegrass, Italian: 500 g ai/ha, 0 to 100 scale (0 no effect, 100 complete control)
# Summary of the method: as §1
# [5] = tested on: Foxtail, Giant (giant foxtail, Setaria faberi); experiment: Test A preemergence, Foxtail, Giant; details: Preemergence; for Foxtail, Giant plant response rating: 125 g ai/ha, visual injury on 0 to 100 scale (0 no effect, 100 complete control), approximately 10 days; for Plant response rating, Foxtail, Giant: 500 g ai/ha, 0 to 100 scale (0 no effect, 100 complete control)
# Summary of the method: as §1
# [6] = tested on: pigweed (Amaranthus retroflexus); experiment: Test A preemergence, pigweed; details: for Pigweed plant response rating: 125 g ai/ha, visual injury on 0 to 100 scale (0 no effect, 100 complete control), approximately 10 days; for Plant response rating, Pigweed: 500 g ai/ha, 0 to 100 scale (0 no effect, 100 complete control)
# From the text: Seeds of plant species selected from barnyardgrass (Echinochloa crus-galli), kochia (Bassia scoparia), ragweed (common ragweed, Ambrosia artemisiifolia), Ryegrass, Italian (Italian ryegrass, Lolium multiflorum), Foxtail, Giant (giant foxtail, Setaria faberi), and pigweed (Amaranthus retroflexus) were planted into a blend of loam soil and sand and treated preemergence with a directed soil spray using test chemicals formulated in a non-phytotoxic solvent mixture which included a surfactant. At the same time, plants selected from these weed species and also wheat (Triticum aestivum), corn (Zea mays), blackgrass (Alopecurus myosuroides), and galium (catchweed bedstraw, Galium aparine) were planted in pots containing the same blend of loam soil and sand and treated with postemergence applications of test chemicals formulated in the same manner. Plants ranged in height from 2 to 10 cm and were in the one- to two-leaf stage for the postemergence treatment. […] A dash (-) response means no test result.
# [7] = tested on: kochia (Bassia scoparia); experiment: Test A postemergence, kochia; details: Postemergence, 0 to 100 scale (0 no effect, 100 complete control); for Plant response rating, Kochia: 125 g ai/ha, visual injury approx. 10 days; for Kochia plant response rating: 500 g ai/ha, visual injury vs untreated controls after approx. 10 days
# Summary of the method: as §1
# [8] = tested on: ragweed (common ragweed, Ambrosia artemisiifolia); experiment: Test A postemergence, ragweed; details: Postemergence, 0 to 100 scale (0 no effect, 100 complete control); for Plant response rating, Ragweed: 125 g ai/ha, visual injury approx. 10 days; for Ragweed plant response rating: 500 g ai/ha, visual injury vs untreated controls after approx. 10 days
# Summary of the method: as §1
# [9] = tested on: Ryegrass, Italian (Italian ryegrass, Lolium multiflorum); experiment: Test A postemergence, Ryegrass, Italian; details: Postemergence, 0 to 100 scale (0 no effect, 100 complete control); for Plant response rating, Ryegrass, Italian: 125 g ai/ha, visual injury approx. 10 days; for Ryegrass, Italian plant response rating: 500 g ai/ha, visual injury vs untreated controls after approx. 10 days
# Summary of the method: as §1
# [10] = tested on: Foxtail, Giant (giant foxtail, Setaria faberi); experiment: Test A postemergence, Foxtail, Giant; details: Postemergence, 0 to 100 scale (0 no effect, 100 complete control); for Plant response rating, Foxtail, Giant: 125 g ai/ha, visual injury approx. 10 days; for Foxtail, Giant plant response rating: 500 g ai/ha, visual injury vs untreated controls after approx. 10 days
# Summary of the method: as §1
# [11] = tested on: pigweed (Amaranthus retroflexus); experiment: Test A postemergence, pigweed; details: Postemergence, 0 to 100 scale (0 no effect, 100 complete control); for Plant response rating, Pigweed: 125 g ai/ha, visual injury approx. 10 days; for Pigweed plant response rating: 500 g ai/ha, visual injury vs untreated controls after approx. 10 days
# Summary of the method: as §1
# [12] = tested on: wheat (Triticum aestivum); experiment: Test A postemergence, wheat; details: Postemergence, 0 to 100 scale (0 no effect, 100 complete control); for Plant response rating, Wheat: 125 g ai/ha, visual injury approx. 10 days; for Wheat plant response rating: 500 g ai/ha, visual injury vs untreated controls after approx. 10 days
# Summary of the method: (§2)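 After sowing into a sand-amended loam, pots for the preemergence test were treated by spraying directly onto soil. In parallel, seedlings at the one- to two-leaf stage and 2 to 10 cm tall were treated postemergence with the identical surfactant-containing formulation.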
# [13] = tested on: corn (Zea mays); experiment: Test A postemergence, corn; details: Postemergence, 0 to 100 scale (0 no effect, 100 complete control); for Plant response rating, Corn: 125 g ai/ha, visual injury approx. 10 days; for Corn plant response rating: 500 g ai/ha, visual injury vs untreated controls after approx. 10 days
# Summary of the method: as §1
# [14] = tested on: blackgrass (Alopecurus myosuroides); experiment: Test A postemergence, blackgrass; details: Postemergence, 0 to 100 scale (0 no effect, 100 complete control); for Plant response rating, Blackgrass: 125 g ai/ha, visual injury approx. 10 days; for Blackgrass plant response rating: 500 g ai/ha, visual injury vs untreated controls after approx. 10 days
# Summary of the method: as §1
# [15] = tested on: galium (catchweed bedstraw, Galium aparine); experiment: Test A postemergence, galium; details: Postemergence, 0 to 100 scale (0 no effect, 100 complete control); for Plant response rating, Galium: 125 g ai/ha, visual injury approx. 10 days; for Galium plant response rating: 500 g ai/ha, visual injury vs untreated controls after approx. 10 days
# Summary of the method: as §2
smiles,measurement,setting,value
Cc1cc(C)c(-c2cc(Cl)nn(C)c2=O)cc1NS(=O)(=O)C(F)(F)F [Compound 72],Barnyardgrass plant response rating,[1],90
same,"Plant response rating, Barnyardgrass",[1],100
same,Kochia plant response rating,[2],100
same,"Plant response rating, Kochia",[2],100
same,Ragweed plant response rating,[3],80
same,"Plant response rating, Ragweed",[3],90
same,"Ryegrass, Italian plant response rating",[4],90
same,"Plant response rating, Ryegrass, Italian",[4],100
same,"Foxtail, Giant plant response rating",[5],100
same,"Plant response rating, Foxtail, Giant",[5],100
same,Pigweed plant response rating,[6],80
same,"Plant response rating, Pigweed",[6],100
same,"Plant response rating, Kochia",[7],40
same,Kochia plant response rating,[7],90
same,"Plant response rating, Ragweed",[8],20
same,Ragweed plant response rating,[8],70
same,"Plant response rating, Ryegrass, Italian",[9],60
same,"Ryegrass, Italian plant response rating",[9],80
same,"Plant response rating, Foxtail, Giant",[10],90
same,"Foxtail, Giant plant response rating",[10],90
same,"Plant response rating, Pigweed",[11],60
same,Pigweed plant response rating,[11],80
same,"Plant response rating, Wheat",[12],60
same,Wheat plant response rating,[12],70
same,"Plant response rating, Corn",[13],0
same,Corn plant response rating,[13],50
same,"Plant response rating, Blackgrass",[14],50
same,Blackgrass plant response rating,[14],80
same,"Plant response rating, Galium",[15],70
same,Galium plant response rating,[15],90
Cc1cc(C)c(N(S(C)(=O)=O)S(=O)(=O)C(F)(F)F)cc1-c1ccnn(C)c1=O [Compound 73],Barnyardgrass plant response rating,[1],90
same,"Plant response rating, Barnyardgrass",[1],90
same,Kochia plant response rating,[2],80
same,"Plant response rating, Kochia",[2],90
same,Ragweed plant response rating,[3],80
same,"Plant response rating, Ragweed",[3],80
same,"Ryegrass, Italian plant response rating",[4],90
same,"Plant response rating, Ryegrass, Italian",[4],100
same,"Foxtail, Giant plant response rating",[5],100
same,"Plant response rating, Foxtail, Giant",[5],100
same,Pigweed plant response rating,[6],90
same,"Plant response rating, Pigweed",[6],100
same,"Plant response rating, Kochia",[7],10
same,Kochia plant response rating,[7],70
same,"Plant response rating, Ragweed",[8],20
same,Ragweed plant response rating,[8],80
same,"Plant response rating, Ryegrass, Italian",[9],60
same,"Ryegrass, Italian plant response rating",[9],90
same,"Plant response rating, Foxtail, Giant",[10],80
same,"Foxtail, Giant plant response rating",[10],90
same,"Plant response rating, Pigweed",[11],60
same,Pigweed plant response rating,[11],80
same,"Plant response rating, Wheat",[12],60
same,Wheat plant response rating,[12],70
same,"Plant response rating, Corn",[13],10
same,Corn plant response rating,[13],70
same,"Plant response rating, Blackgrass",[14],40
same,Blackgrass plant response rating,[14],80
same,"Plant response rating, Galium",[15],90
same,Galium plant response rating,[15],90
